Laboratory results taken from publication PMC9589286, “Ruthenium polypyridine complexes with triphenylamine groups as antibacterial agents against Staphylococcus aureus with membrane-disruptive mechanism” (Frontiers in Chemistry, 2022).

Assays:
[1] = system: Staphylococcus aureus in biofilm; test: Killing bacteria in established biofilm; format: cell-based; settings: 32 μg ml^−1; initial 8.62
Experimental: To establish bacterial biofilm, the overnight cultured Staphylococcus aureus strain was diluted 1000 times with fresh TSB medium, then the bacterial suspension was transferred to 96 well plate and cultured for 24 h. Subsequently, the supernatant was removed and the formed biofilm was washed 3 times with PBS solution. 200 μL solution containing Ru-3 of different concentrations (512, 256, 128, 64, 32, 16, 8, 4 μg ml^−1) were added and further incubated at 37°C for 24 h. Biofilm without Ru-3 were used as positive controls. Then the supernatant was discarded and the residual biofilm was cleaned using 200 μL PBS 3 times. Next, fresh medium was added to culture for 24 h ([Yang et al., 2021]). The solution after culture was diluted 1000 times and 100 μL was taken out for plate coating and counting.

BALB/c mice = test: Acute skin irritation test, H&E; format: in vivo; settings: 0.05 and 0.1 mg ml^−1, once a day for 3 days, topical
Experimental: Female BALB/c mice were randomly divided into three groups, control group, Ru-3 (0.05 mg ml^−1) group and Ru-3 (0.1 mg ml^−1). The day before the experiment, the hair on the back of female mice was removed. The compound and distilled water control were gently attached to the shaving site (about 2 cm^2) once a day for 3 days. On the fourth day, the mice were killed by cervical dislocation. The skin tissue at the site of infections were taken out and fixed in 4% paraformaldehyde at 4°C for 1 day, then embedded in paraffin. Serial sections were prepared for H&E analysis.

[2] = system: Staphylococcus aureus hemolysin; test: Toxin (hemolysin) secretion, rabbit blood cell hemolysis by culture supernatant; format: cell-based
Experimental: Firstly, S. aureus was cultured overnight and diluted 1000 times with fresh TSB, then a mixture of Ru-3 of 1 μg ml^−1 or 2 μg ml^−1 and Staphylococcus aureus solution was cultured in a shaking Table at 37°C for 18 h. After culturing, centrifuging (5000 rpm, 2 min) Staphylococcus aureus solution. And rabbit blood cells were prepared with PBS buffer (washing rabbit blood three times). Blood cells were collected by centrifugation (2000 rpm, 2 min). Secondly, a mixture containing 1 ml PBS buffer, 150 μL supernatant and 25 μL blood cells was cultured at 37°C for 30 min. Then cultured supernatant was obtained by centrifugation (2000 rpm, room temperature, 2 min). Finally, the optical density of the supernatant was measured at 540 nm.

Staphylococcus aureus [3] = test: Nucleic acid leakage, 260 nm absorbing material; format: cell-based; settings: 4 μg/ml, 2 h
Experimental: To verify the membrane damage, the loss of 260 nm absorbing material was carried out ([Yu et al., 2021]). Briefly, overnight cultured bacteria were diluted 1:1000 in fresh TSB and shaken at 37°C for about 5 h until the exponential stage was reached. The supernatant was removed by centrifugation, then the bacteria were resuspended to OD600 = 1 with PBS, which was further treated with Ru-3 or polymyxin B and centrifuged after 2 h to precipitate bacterial cells. Subsequently, the loss of 260 nm absorbing material, including the release of DNA and RNA in the filtrate, was measured at 260 nm.

Staphylococcus aureus [4] = test: MIC by microdilution in TSB broth; format: cell-based; settings: S. aureus, 37°C, 20 h
Experimental: Antibacterial activity was evaluated by measuring MIC (minimum inhibitory concentration) and MBC (minimum bactericidal concentration) values. The MIC value was measured by the microdilution method using TSB broth with 96 well plates ([Carlsen et al., 1981]) and the MBC value was determined by LB plates. In brief, the overnight cultured bacteria were 1: 1000 diluted with fresh medium to get a bacterial suspension. After incubation at 37°C for 20 h, the growth of bacteria is monitored by observing the turbidity of the culture. The bacterial solution was diluted as above method and the complexes were incubated with bacterial solution for 2 h. Then 100 μL bacterial solution was taken for plate coating. The Staphylococcus aureus growth inhibition trend in the presence of complexes was obtained. The MBC values of complexes were determined by LB plates after culturing in the same method for 24 h. All experiments were controlled with sterile water and repeated in parallel at least three times.

[Ru(dmb)2PMA] (PF6)2 [Ru-3]
number of the survival Staphylococcus aureus in the biofilm [1]: 0 log10 colony-forming units per milliliter (CFU/ml)
skin irritation, H&E pathological changes (BALB/c mice): no obvious pathological abnormalities
Toxin reduced by ([2]; 1 μg ml^−1): 38%
Toxin reduced by ([2]; 2 μg ml^−1): 63%
Δ% Nucleic acid leakage (Staphylococcus aureus [3]): 20%
MIC (Staphylococcus aureus [4]): 4 µg/mL
